The values below come from US9034873B2, “Pyridazine and pyrrole compounds, processes for obtaining them and uses” (Centre National de la Recherche Scientifique (C.N.R.S.), priority 2006, dated 2015).

Data set [1] relates to Leishmania mexicana amastigotes. Briefly: Activity against Leishmania mexicana, amastigotes. In kind it is cell-based. To be noted: amastigote stage; for IC50: Leishmania mexicana, read-out: Activity against Leishmania mexicana (IC50 μg/ml) amastigotes.
The subject of another data set is Caco (colon). Briefly: IC50 of the referent molecules on Caco (colon) cells. In kind it is cell-based.
Another data set has as its system Sub7 (liver). In words: IC50 of the referent molecules on Sub7 (liver) cells. In kind it is cell-based.
Another data set relates to Fibroblast (skin). Briefly: IC50 of the referent molecules on Fibroblast (skin) cells. In kind it is cell-based.
A further data set deals with Leishmania mexicana. In words: Parasitology: activity against Leishmania mexicana. In kind it is cell-based.
Another data set has as its system Candida albicans. Briefly: Parasitology: activity against Candida albicans. The data set is classed as cell-based.
In a further data set the test system is Aspergillus fumigatus. In words: Parasitology: activity against Aspergillus fumigatus. The data set is classed as cell-based. To be noted: for IC80: IC80 stated in the cell.
Data set [2] relates to KB, Caco, Huh7 and fibroblast cells. Briefly: Cancer cell model: in vitro test on KB, Caco, Huh7 and fibroblast cells. The data set is classed as cell-based.
The nature of another data set: Cytotoxicity on KB cells. In kind it is cell-based. To be noted: human.
Another data set concerns the target tonB protein (Escherichia coli, UniProt P02929). In words: Effect on tonB protein (iron transport used for bacterial growth). Conditions: tonB protein involved in the iron transport process used for bacterial growth.
Data set [3] relates to Leishmania mexicana promastigotes. Briefly: Activity against Leishmania mexicana, promastigotes. In kind it is cell-based. Conditions: for IC50: Leishmania mexicana, read-out: Activity against Leishmania mexicana (IC50 μg/ml) promastigotes, promastigote stage.
Setting [4] is: 24 h, read-out: IC50 μM Caco (colon) 24 h.
Where [5] appears, read: 48 h, read-out: IC50 μM Caco (colon) 48 h.
Setting [6] is: 24 h, read-out: IC50 μM Sub7 (liver) 24 h.
[7] abbreviates: 48 h, read-out: IC50 μM Sub7 (liver) 48 h.
[8] abbreviates: read-out: Parasitology IC50 or 80 Leishmania mexicana μM.
Where [9] appears, read: read-out: Parasitology IC50 or 80 Leishmania mexicana μg/mL.
Where [10] appears, read: read-out: Parasitology IC50 or 80 Candida albicans μM.
The mark [11] stands for this setting: read-out: Parasitology IC50 or 80 Candida albicans μg/mL.
The mark [12] stands for this setting: KB cells, read-out: KB cells Cytotoxicity IC50 μM.
Setting [13] is: Fibroblast, 24 h, read-out: IC50 μM Fibroblast (skin) 24 h.
[14] abbreviates: Fibroblast, 48 h, read-out: IC50 μM Fibroblast (skin) 48 H.

Each structure is given as a SMILES string. Values after ≈ are worked out from the molar mass of the structure shown. Where two headings read alike, the source gives them in different places. Where only a bound is given, the exact number is not on record here.

tonB protein, sequence (P02929 whole entry): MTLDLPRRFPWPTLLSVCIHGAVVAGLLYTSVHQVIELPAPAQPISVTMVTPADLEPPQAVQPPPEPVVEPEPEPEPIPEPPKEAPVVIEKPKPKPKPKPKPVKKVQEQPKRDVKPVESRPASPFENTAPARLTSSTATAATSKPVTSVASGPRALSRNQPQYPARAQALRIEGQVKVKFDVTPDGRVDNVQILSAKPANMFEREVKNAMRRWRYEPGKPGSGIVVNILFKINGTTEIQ

In the case of `C[C@@H]1[C@H](O)[C@@H](C)/C=C/C=C/C=C/C=C/C=C/C=C/C=C/[C@H](O[C@@H]2O[C@H](C)[C@@H](O)[C@H](N)[C@@H]2O)C[C@@H]2O[C@](O)(C[C@@H](O)C[C@@H](O)[C@H](O)CC[C@@H](O)C[C@@H](O)CC(=O)O[C@H]1C)C[C@H](O)[C@H]2C(=O)O` [Amphotericin B], in data set [1], the “Activity against Leishmania mexicana (IC50 μg/ml) amastigotes” value turned out to be 0.47 ± 0.05 µg/mL.

With `O=c1[nH]cc(F)c(=O)[nH]1` [Compound 5FU, 5FU], the IC50 in the data set with Caco (colon) (setting [4]) is 0.5 µM; with Caco (colon) (setting [5]), 0.5 µM; with Sub7 (liver) (setting [6]) it was > 25 µM; in the data set on Sub7 (liver) (setting [7]) it was > 25 µM; with Fibroblast (skin) (48 H, read-out: IC50 μM Fibroblast (skin) 48 H) it was > 25 µM; in the data set with Fibroblast (skin) (24 h, read-out: IC50 μM Fibroblast (skin) 24 h), > 25 µM.

For the compound `c1ccc(-c2ccc(Oc3ccc(-c4ccccn4)nn3)nn2)nc1` [Compound 9, di(6-pyridin-2-yl)pyridazine ether], the IC50 was > 100 µM in the data set with Leishmania mexicana (setting [8]); > 22.8 µg/mL in the data set on Leishmania mexicana (setting [9]); > 100 µM with Candida albicans (setting [10]); > 22.8 µg/mL in the data set on Candida albicans (setting [11]); > 100 µM in the data set with Aspergillus fumigatus (cell does not say IC50 or IC80, read-out: Parasitology IC50 or 80 Aspergillus fumigatus μM); > 22.8 µg/mL with Aspergillus fumigatus (cell does not say IC50 or IC80, read-out: Parasitology IC50 or 80 Aspergillus fumigatus μg/mL).

Turning to `S=c1ccc(-c2ccccn2)n[nH]1` [Compound 10, 6-(pyridin-2-yl)-2H-pyridazine-3-thione], the “cytotoxic activity in a cancer cell model” value (“cytotoxic activity” for short) in [2] is given as “very high cytotoxic activity”.

In the case of `c1ccc(-c2ccc(Sc3ccc(-c4ccccn4)nn3)nn2)nc1` [Compound 11, di(6-pyridin-2-yl)pyridazine thioether], the IC50 amounted to 3 µM in the data set with Leishmania mexicana (setting [8]), 8.73 µg/mL in the data set with Leishmania mexicana (setting [9]), 99 µM in the data set with Candida albicans (setting [10]) and 24.2 µg/mL in the data set on Candida albicans (setting [11]). In data set [2], the “cytotoxic activity” value is reported as “very high cytotoxic activity”.

As to `C=C(OCC)c1ccc(-c2ccc(C(=C)OCC)nn2)nn1` [Compound 24, 6,6′-di(1-ethoxyvinyl)-3,3′-bipyridazine], the IC50 in “Cytotoxicity on KB cells” (KB cancer cells, text of Example 2, read-out: cytotoxic potential on KB cancer cells, IC50) came to 0.3 µg/mL. Also, the “cytotoxic activity” value in data set [2] is listed as “very high cytotoxic activity”. Also, the “effect on the tonB protein” value on tonB protein is “affects the tonB protein”.

As for `c1ccc(-c2ccc(-c3cccc(-c4ccc(-c5ccccn5)nn4)n3)nn2)nc1` [Compound 33, 2,6-bis[6-(pyridin-2-yl)pyridazin-3-yl]-pyridine], the IC50 in “Cytotoxicity on KB cells” (setting [12]) worked out at 6.27 µM; in “Cytotoxicity on KB cells” (KB cells, read-out: KB cells Cytotoxicity IC50 μg/mL) it was 1.81 µg/mL; in the data set on Leishmania mexicana (setting [8]), 0.19 µM; in the data set on Leishmania mexicana (setting [9]), 0.05 µg/mL; with Candida albicans (setting [10]), 6.4 µM; in the data set with Candida albicans (setting [11]), 1.85 µg/mL. In addition, the results for the IC80 in the data set with Aspergillus fumigatus (read-out: Aspergillus fumigatus IC80 μM) and in the data set on Aspergillus fumigatus (read-out: Aspergillus fumigatus IC80 μg/mL) were 32 µM and 9.26 µg/mL, respectively.

Consider `O=c1ccc(-c2cccc(-c3ccc(=O)[nH]n3)n2)n[nH]1` [Compound 36, 2,6-bis(3-oxo-2H-pyridazin-6-yl)pyridine], for which the IC50 in the data set “Cytotoxicity on KB cells” (setting [12]) is 2.6 µM; with Leishmania mexicana (setting [8]) it was 41 µM; in the data set on Leishmania mexicana (setting [9]), 11 µg/mL; in the data set on Candida albicans (setting [10]) it was > 100 µM; in the data set with Candida albicans (setting [11]) it was > 26.7 µg/mL.

As for `Cc1cccc(-c2ccc(-c3cccc(-c4ccc(-c5cccc(C)n5)nn4)n3)nn2)n1` [Compound 49, 2,6-bis[6-(6-methylpyridin-2-yl)pyridazin-3-yl)pyridine], the “cytotoxic activity” value in [2] is “very high cytotoxic activity”.

For the compound `O=C(O)c1cccc(-c2ccc(-c3cccc(-c4ccc(-c5cccc(C(=O)O)n5)nn4)n3)nn2)n1` [Compound 50, 2,6-bis[3-(2-carboxypyridin-6-yl)pyridazin-6-yl]pyridine], the IC50 with Leishmania mexicana (setting [8]) was 8 µM; in the data set on Leishmania mexicana (setting [9]), 3.8 µg/mL; in the data set with Candida albicans (setting [10]), 63 µM; in the data set on Candida albicans (setting [11]), 30.1 µg/mL. The “cytotoxic activity” value in [2] is reported as “very high cytotoxic activity”.

With `c1ccc(-c2ccc(-c3ccc4ccc5ccc(-c6ccc(-c7ccccn7)nn6)nc5c4n3)nn2)nc1` [Compound 66, 2,9-bis[6-(pyridin-2-yl)pyridazin-3-yl][1,10]phenanthroline], the IC50 in the data set with Leishmania mexicana (setting [8]) is 16 µM; with Leishmania mexicana (setting [9]), 7.84 µg/mL; in the data set on Candida albicans (setting [10]) it was > 100 µM; in the data set on Candida albicans (setting [11]), ≥ 49.1 µg/mL.

Consider `COc1cccc2c1C(=O)c1c(O)c3c(c(O)c1C2=O)C[C@@](O)(C(=O)CO)C[C@@H]3O[C@H]1C[C@H](N)[C@H](O)[C@H](C)O1` [Doxorubicine], for which the IC50 in the data set with Caco (colon) (setting [4]) worked out at 1 µM; in the data set on Caco (colon) (setting [5]) it was 0.06 µM; in the data set on Sub7 (liver) (setting [6]), 0.4 µM; with Sub7 (liver) (setting [7]) it was 0.04 µM; with Fibroblast (skin) (setting [13]) it was 2 µM; with Fibroblast (skin) (setting [14]) it was 1 µM.

As to `CC(=O)N1CCN(c2ccc(OCC3COC(Cn4ccnc4)(c4ccc(Cl)cc4Cl)O3)cc2)CC1` (stereo not shown) [Ketoconazole], the IC50 in data set [3] was ~0.3 µg/mL (≈ 0.565 µM); in data set [1] it was 1.3 ± 0.2 µg/mL (≈ 2.45 µM).

Regarding `CCCCCCCCCCCCCCCCOP(=O)([O-])OCC[N+](C)(C)C` [Miltefosine], the IC50 in data set [3] was > 2 µg/mL; in data set [1] it was 1.42 ± 0.14 µg/mL (≈ 3.48 µM). Moreover, the “Activity against Leishmania mexicana (IC50 μg/ml) promastigotes” value in data set [3] (promastigote stage) is >2 µg/mL.

With `CC[C@H](CO)Nc1nc(NCc2ccccc2)c2ncn(C(C)C)c2n1` [Roscovitine], the IC50 in the data set with Fibroblast (skin) (setting [13]) and in the data set on Fibroblast (skin) (setting [14]) was > 25 µM in each case.

Regarding `CC(=O)O[C@H]1C(=O)[C@@]2(C)[C@H]([C@H](OC(=O)c3ccccc3)[C@]3(O)C[C@H](OC(=O)[C@H](O)[C@@H](NC(=O)c4ccccc4)c4ccccc4)C(C)=C1C3(C)C)[C@]1(OC(C)=O)CO[C@@H]1C[C@@H]2O` [Taxol], the IC50 is 0.01 µM with Caco (colon) (setting [4]); < 0.008 µM in the data set with Caco (colon) (setting [5]); 0.01 µM in the data set on Sub7 (liver) (setting [6]); < 0.01 µM with Sub7 (liver) (setting [7]); > 25 µM with Fibroblast (skin) (setting [13]); > 25 µM with Fibroblast (skin) (setting [14]).
